From patent publication US12569534B2, “Therapeutic nanoparticles by coacervate complexation and their use for treating bacteria” (priority 2018, dated 2026)

Columns and labels:
[1] = system: P. aeruginosa; test: MIC/MBC broth microdilution, Example 1; format: cell-based, Pseudomonas aeruginosa; conditions: Example 1 CS NPs
Protocol: (§1) To evaluate antibacterial efficacy of the CS NPs, their minimum inhibitory concentration (MIC) and minimum bactericidal concentration (MBC) were assessed against 5 reference bacterial strains and 39 clinical isolates of carbapenem-resistant A. baumannii, P. aeruginosa, E. coli, and K. pneumoniae.
(§2) Reference bacterial stains were purchased from ATCC. Clinical isolates of carbapenem-resistant bacteria were obtained from National Health Research Institutes (NHRI) and Tri-Service General Hospital (TSGH). MIC is defined as the lowest concentration of antibiotics required to inhibit the growth of bacteria. MBC is defined as the lowest concentration of antibiotics required to eradicate microorganisms. The MICs of CS and the CS NPs were determined using a broth microdilution method. Bacterial suspensions were adjusted to a turbidity of McFarland 0.5±0.05 and cultured overnight with different concentrations of CS or CS NPs. A control group without antimicrobial treatment was prepared as a reference. Following overnight incubation, solution turbidity was determined by visual inspection. Culture wells with no observable turbidity were further sub-cultured for MBC evaluation. Solutions from the clear wells were deposited onto an agar plate and cultured overnight to determine the MBCs.

[2] = system: K. pneumoniae; test: MIC/MBC broth microdilution, Example 1; format: cell-based, Klebsiella pneumoniae; conditions: Example 1 CS NPs
Protocol: as §1, §2

[3] = system: A. baumannii; test: MIC/MBC broth microdilution, Example 2; format: cell-based, Acinetobacter baumannii; conditions: Example 2 CS NPs
Protocol: as §2
(§3) To evaluate the antibacterial efficacy of the CS NPs of this study, their MIC and MBC were assessed against 5 reference bacterial strains and 20 clinical isolates of carbapenem-resistant A. baumannii, E. coli, K. pneumoniae, and P. aeruginosa according to the procedures set forth in EXAMPLE 1. Reference bacterial stains were purchased from ATCC. Carbapenem-resistant clinical isolated were obtained from NHRI.

[4] = system: E. coli; test: MIC/MBC broth microdilution, Example 2; format: cell-based; conditions: Example 2 CS NPs
Protocol: as §2, §3

[5] = system: K. pneumoniae; test: MIC/MBC broth microdilution, Example 2; format: cell-based, Klebsiella pneumoniae; conditions: Example 2 CS NPs
Protocol: as §2, §3

[6] = system: K. pneumoniae NHRI 1 isolate; test: Mouse survival model of K. pneumoniae infection; format: in vivo; conditions: neutropenic Balb/c mice, lethal i.p. infection; 5 mg/kg CS or 20 mg/kg CS NPs (50% MTD) 5 hours post-infection
Protocol: 3 days and 1 day before infection, the mice were injected intraperitoneally with 150 and 100 mg/kg of cyclophosphamide, respectively, to induce neutropenia. K. pneumoniae NHRI 1 isolate was grown in 60 mL Mueller Hinton broth at 150 rpm (orbital shaker, Yihder TS-580) for 2.5 hours at 37° C. to reach the mid-logarithmic phase. The bacteria were then collected at 10,000×g for 10 minutes at 4° C. The bacterial pellet was resuspended in PBS. To induce K. pneumoniae intraperitoneal infection with a lethal bacterial dose, mice were infected with 1.5×10^8 CFU/mouse in […] via intraperitoneal injection. 5 hours post-infection, the infected mice were treated with 5 mg/kg CS (50% MTD), 20 mg/kg CS NPs (50% MTD), or PBS as a control.

[7] = mouse, in vivo, iv, 4 mg/kg
Protocol: A group of mice were injected intravenously with sterile PBS through the tail vein as negative control. 24 hours after the last treatment, 0.5 mL of blood was collected from the animals for comprehensive metabolic panel analysis. The data was analyzed by Student's t-test followed by Dunnett's multiple comparison tests using GraphPad Prism (GraphPad Software, San Diego, CA). p values smaller than 0.05 were considered significant.

[8] = clinical carbapenem-resistant P. aeruginosa NHRI 1
[9] = clinical carbapenem-resistant P. aeruginosa NHRI 2
[10] = clinical carbapenem-resistant P. aeruginosa NHRI 3
[11] = clinical carbapenem-resistant P. aeruginosa NHRI 4
[12] = clinical carbapenem-resistant P. aeruginosa NHRI 5
[13] = reference strain P. aeruginosa 27853
[14] = clinical carbapenem-resistant K. pneumoniae NHRI 1
[15] = clinical carbapenem-resistant K. pneumoniae NHRI 2
[16] = clinical carbapenem-resistant K. pneumoniae NHRI 4
[17] = clinical carbapenem-resistant K. pneumoniae NHRI 5
[18] = clinical carbapenem-resistant K. pneumoniae TSGH 1
[19] = clinical carbapenem-resistant K. pneumoniae TSGH 3
[20] = clinical carbapenem-resistant K. pneumoniae TSGH 5
[21] = clinical carbapenem-resistant K. pneumoniae TSGH 7
[22] = clinical carbapenem-resistant K. pneumoniae TSGH 9
[23] = clinical carbapenem-resistant K. pneumoniae TSGH 11
[24] = clinical carbapenem-resistant K. pneumoniae TSGH 13
[25] = clinical carbapenem-resistant K. pneumoniae TSGH 15
[26] = clinical carbapenem-resistant K. pneumoniae TSGH 16
[27] = clinical carbapenem-resistant K. pneumoniae TSGH 17
[28] = clinical carbapenem-resistant K. pneumoniae TSGH 18
[29] = clinical carbapenem-resistant K. pneumoniae TSGH 19
[30] = clinical carbapenem-resistant isolate A. baumannii NHRI 1
[31] = clinical carbapenem-resistant isolate A. baumannii NHRI 2
[32] = clinical carbapenem-resistant isolate A. baumannii NHRI 3
[33] = clinical carbapenem-resistant isolate A. baumannii NHRI 4
[34] = clinical carbapenem-resistant isolate A. baumannii NHRI 5
[35] = reference strain A. baumannii 17978
[36] = reference strain A. baumannii 19606
[37] = clinical carbapenem-resistant isolate E. coli NHRI 1
[38] = clinical carbapenem-resistant isolate E. coli NHRI 2
[39] = clinical carbapenem-resistant isolate E. coli NHRI 3
[40] = clinical carbapenem-resistant isolate E. coli NHRI 4
[41] = clinical carbapenem-resistant isolate E. coli NHRI 5
[42] = clinical carbapenem-resistant isolate K. pneumoniae NHRI 1
[43] = clinical carbapenem-resistant isolate K. pneumoniae NHRI 2
[44] = clinical carbapenem-resistant isolate K. pneumoniae NHRI 3
[45] = clinical carbapenem-resistant isolate K. pneumoniae NHRI 4
[46] = clinical carbapenem-resistant isolate K. pneumoniae NHRI 5

Substance: colistin [CS]
- MBC [1, 8]: 2 µg/mL
- MIC [1, 8]: 2 µg/mL
- MBC [1, 9]: 4 µg/mL
- MIC [1, 9]: 2 µg/mL
- MBC [1, 10]: 8 µg/mL
- MIC [1, 10]: 2 µg/mL
- MBC [1, 11]: 8 µg/mL
- MIC [1, 11]: 4 µg/mL
- MBC [1, 12]: 4 µg/mL
- MIC [1, 12]: 2 µg/mL
- MBC [1, 13]: 1 µg/mL
- MIC [1, 13]: 1 µg/mL
- MBC [2, 14]: 4 µg/mL
- MIC [2, 14]: 2 µg/mL
- MBC [2, 15]: 2 µg/mL
- MIC [2, 15]: 2 µg/mL
- MBC [2, 16]: 2 µg/mL
- MIC [2, 16]: 2 µg/mL
- MBC [2, 17]: 2 µg/mL
- MIC [2, 17]: 2 µg/mL
- MBC [2, 18]: 2 µg/mL
- MIC [2, 18]: 2 µg/mL
- MBC [2, 19]: 1 µg/mL
- MIC [2, 19]: 1 µg/mL
- MBC [2, 20]: 1 µg/mL
- MIC [2, 20]: 1 µg/mL
- MBC [2, 21]: 1 µg/mL
- MIC [2, 21]: 1 µg/mL
- MBC [2, 22]: 2 µg/mL
- MIC [2, 22]: 1 µg/mL
- MBC [2, 23]: 4 µg/mL
- MIC [2, 23]: 4 µg/mL
- MBC [2, 24]: 2 µg/mL
- MIC [2, 24]: 1 µg/mL
- MBC [2, 25]: 1 µg/mL
- MIC [2, 25]: 1 µg/mL
- MBC [2, 26]: 2 µg/mL
- MIC [2, 26]: 2 µg/mL
- MBC [2, 27]: 1 µg/mL
- MIC [2, 27]: 1 µg/mL
- MBC [2, 28]: 1 µg/mL
- MIC [2, 28]: 1 µg/mL
- MBC [2, 29]: 4 µg/mL
- MIC [2, 29]: 1 µg/mL
- MBC [3, 30]: 2 µg/mL
- MIC [3, 30]: 1 µg/mL
- MBC [3, 31]: 2 µg/mL
- MIC [3, 31]: 2 µg/mL
- MBC [3, 32]: 2 µg/mL
- MIC [3, 32]: 1 µg/mL
- MBC [3, 33]: 4 µg/mL
- MIC [3, 33]: 1 µg/mL
- MBC [3, 34]: 2 µg/mL
- MIC [3, 34]: 1 µg/mL
- MBC [3, 35]: 2 µg/mL
- MIC [3, 35]: 2 µg/mL
- MBC [3, 36]: 4 µg/mL
- MIC [3, 36]: 2 µg/mL
- MBC [4, 37]: 2 µg/mL
- MIC [4, 37]: 2 µg/mL
- MBC [4, 38]: 2 µg/mL
- MIC [4, 38]: 1 µg/mL
- MBC [4, 39]: 2 µg/mL
- MIC [4, 39]: 1 µg/mL
- MBC [4, 40]: 1 µg/mL
- MIC [4, 40]: 1 µg/mL
- MBC [4, 41]: 0.5 µg/mL
- MIC [4, 41]: 0.5 µg/mL
- MBC ([4]; reference strain E. coli 25922): 2 µg/mL
- MIC ([4]; reference strain E. coli 25922): 1 µg/mL
- MBC [5, 42]: 4 µg/mL
- MIC [5, 42]: 1 µg/mL
- MBC [5, 43]: 1 µg/mL
- MIC [5, 43]: 1 µg/mL
- MBC [5, 44]: 2 µg/mL
- MIC [5, 44]: 1 µg/mL
- MBC [5, 45]: 2 µg/mL
- MIC [5, 45]: 2 µg/mL
- MBC [5, 46]: 4 µg/mL
- MIC [5, 46]: 1 µg/mL
- mice survival rate [6]: did not improve survival
- other parameters in the comprehensive metabolic panel [7]: neither CS nor the CS NPs induced any notable changes
